Laboratory results taken from patent publication US20220062233A1 (The Board of Trustees of the Leland Stanford Junior …, priority 2018, published 2022).

What was measured:
[1] = molecular target: T1, interaction between Supt4h and NGN (subunit of Supt5h) (Homo sapiens, UniProt O00267+P63272); test: Split Gaussia luciferase complementation assay (M2-8 Luciferase); format: cell-based; conditions: M2-8 cells
T1 construct: expressed in transfected cells
Summary of the method: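 HEK293-derived M2-8 cells inducibly express Supt4h-Gluc1 and NGN-Gluc2 fragments (stabilizing mutations) on RheoSwitch ligand addition; ligand plus compound added 24 h after plating and left 24 h. Cells frozen, lysed with 10 μg/ml native coelenterazine, 1 h room temperature dark; complemented luciferase luminescence read.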

wild-type HTT = test: Wild-type HTT assay in lymphoblastoid cells (LBC), Western blot; format: cell-based, human; conditions: 3 days compound treatment, read-out: LBC IC20 (nM) wtHTT
Description: (§1) B. Mutant and Wild-Type HTT Assay in Lymphoblastoid Cells (LBC)
(§2) a. Cell Culturing and Compound Treatment
(§3) Lymphoblastoid cells derived from a Huntington's disease patient with 250 CAG repeats in the mutant HTT allele (GM14044 from Coriell Institute) were cultured in RPMI 1640 (Corning Cellgro, 10-040-CV) containing fetal bovine serum (Atlanta Biologicals, S11150). 4×10^5 cells were seeded on a 24-well plate and incubated with testing compound for 3 days. The cell suspension was then transferred to a 1.5 ml Eppendorf tube. Cells were collected by centrifugation and washed once with PBS. After all liquid was removed, the cell pellet was placed at −80° C. for at least 10 minutes. Lysis buffer [30 mM Tris-HCl (pH 8.0), 5 mM NaCl, 0.1% Triton X-100] with the proteinase inhibitor cocktail (P8340 from Sigma-Aldrich) was then added to the cells. Following centrifugation (14 k rpm for 15 min at 4° C.), the supernatant was collected. The protein concentrations were determined by BCA assay (Pierce, ThermoFisher).
(§4) Equal amounts of protein were loaded onto 4-12% gel (Invitrogen, WG1403A). After electrophoresis, the gels were transferred to nitrocellulose membranes by wet transfer at 72V for 3 hrs. […] The protein levels of mutant HTT, wild-type HTT, TBP, and tubulin were determined by immunoblotting with anti-polyQ specific antibody (clone MW1), anti-Huntingtin antibody (Abcam, ab45169), anti-TBP antibody (Sigma, T1827) and anti-alpha tubulin antibody (Sigma, T9026). Blots were imaged on a Li-Cor Odyssey infrared imager. The band intensities were determined by Li-Cor Odyssey software.

M2-8 cells = test: M2-8 Cell viability Assay; format: cell-based; conditions: at the concentration of 1000 nM
[2] = system: Huntington's disease patient iPSCs (ND50036); test: iPSC viability at IC20; format: cell-based, human; conditions: at the concentration of IC20
mutant HTT [3] = test: Mutant HTT assay in induced pluripotent stem cells (iPSC); format: cell-based, human; conditions: HD patient iPSCs, one day incubation, read-out: iPSC IC20 (nM) mHTT
Description: C. Mutant HTT Assay in Induced Pluripotent Stem Cells (iPSC) a. Cell Culturing and Compound Treatment
Huntington's disease patient iPSCs (ND50036 from NINDS) were detached into single cells by Accutase (25058CI from Corning), counted and plated on a 24-well plate coated with Matrigel (354277 from Corning) at density of 7,000 cells/well. After 48 hrs, compounds were added to the cell culture medium mTeSR1 (85850 from StemCell Technologies) and the cells were incubated for one day. The medium was then removed, and the cells were washed with PBS. After all liquid was removed, the plate was placed at −80° C. overnight. Lysis buffer [30 mM Tris-HCl (pH 8.0), 5 mM NaCl, 0.1% Triton X-100] with the complete proteinase inhibitor cocktail (5892791001 from Sigma-Aldrich) was then added to the cells. Cell samples were lysed on an orbital plate shaker at 4° C. at 700 rpm for 30 min. The supernatants from spinning (14 k rpm for 10 min) were collected. The protein concentrations were determined by BCA assay (23225 from Pierce, ThermoFisher). […]
b. Detection of Mutant HTT Protein
Equal amounts of protein lysate collected from each sample were added to a 96-well plate that had been coated with a human HTT specific monoclonal antibody. After washing away any unbound substances, a biotinylated anti-human mutant HTT specific detection antibody was added. Streptavidin-horseradish peroxidase was subsequently added, followed by TMB Substrate Solution, which yielded a blue product that turns yellow when the Stop Solution was added. The intensity of the color measured was in proportion to the amount of mutant HTT bound in the initial step. The mutant HTT values are then interpolated from a standard curve.

mutant HTT [4] = test: Mutant HTT assay in lymphoblastoid cells (LBC), Western blot; format: cell-based, human; conditions: read-out: LBC IC20 (nM) mHTT, 3 days compound treatment
Description: as §1, §2, §3, §4

[5] = system: Lymphoblastoid cells (GM14044); test: LBC cell viability (Cell Titer-Glo); format: cell-based, human; conditions: at the concentration of IC20, 3-day compound treatment
Description: Cell viability was determined by Cell Titer-Glo reagent (Promega, PRG9243). After 3-day compound treatment, 15 μl of cell suspension was taken out from plate and incubated with 10 μl of CTG reagent. The values of reaction mixture were detected by Tecan.

mouse hepatocytes = test: In vitro metabolic stability in mouse hepatocytes; format: in vitro ADME
Description: A. In Vitro Metabolic Stability in Hepatocyte
A compound's metabolic stability was assessed using mouse hepatocytes incubated with pre-defined concentration of test articles over several incubation period. The extent of metabolism was calculated from the disappearance of the test compound measured by liquid chromatography mass spectrometry (LC-MS), compared to that of 0-min control. After incubation, quench solutions including internal standards were added and analyzed by LC/MS. The elimination rate constant and intrinsic clearance (CLhepatocyte) values were calculated by linear regression of the compound elimination over the duration of incubation, normalized to the cell number in the given volume of incubation medium.

Structure (SMILES): C[C@H](N[C@@H]1CCCc2c1[nH]c1ccc(Br)cc21)c1ccccc1 (single isomer, unassigned) [Compound 14]
- IC50 [1]: ≤ 100 nM
- IC20 (wild-type HTT): > 1000 nM
- M2-8 Cell viability (M2-8 cells): + (cell viability is greater than 50% at the concentration of 1000 nM)
- iPSC viability at IC20 [2]: + (cell viability is greater than 75% at the concentration of IC20)
- IC20 (mutant HTT [3]; class symbols): < 100 nM
- IC20 (mutant HTT [4]): < 100 nM
- LBC viability at IC20 [5]: * (cell viability is greater than 60% at the concentration of IC20)

Structure (SMILES): COCC(N[C@@H]1CCCc2c1[nH]c1ccc(Br)cc21)c1ccc(C(C)(C)O)cc1 (single isomer, unassigned) [Compound 52]
- IC50 [1]: ≤ 100 nM
- IC20 (wild-type HTT): > 500 nM
- M2-8 Cell viability (M2-8 cells): + (cell viability is greater than 50% at the concentration of 1000 nM)
- iPSC viability at IC20 [2]: + (cell viability is greater than 75% at the concentration of IC20)
- IC20 (mutant HTT [3]; class symbols): < 100 nM
- IC20 (mutant HTT [4]): < 100 nM
- LBC viability at IC20 [5]: * (cell viability is greater than 60% at the concentration of IC20)

Structure (SMILES): OCc1ccc(CN[C@@H]2CCCc3c2[nH]c2ccc(Br)cc32)s1 [Compound 36, (R)-(5-(((6-bromo-2,3,4,9-tetrahydro-1H-carbazol-1-yl)amino)methyl)thiophen-2-yl)methanol]
- IC50 [1]: ≤ 100 nM
- IC20 (wild-type HTT): > 1000 nM
- M2-8 Cell viability (M2-8 cells): + (cell viability is greater than 50% at the concentration of 1000 nM)
- Mouse HepStability (CLhepatocyte) (mouse hepatocytes): C (CLhepatocyte >30 μl/min/10^6cells)
- iPSC viability at IC20 [2]: + (cell viability is greater than 75% at the concentration of IC20)
- IC20 (mutant HTT [3]; class symbols): < 100 nM
- IC20 (mutant HTT [4]): 101 to 300 nM
- LBC viability at IC20 [5]: * (cell viability is greater than 60% at the concentration of IC20)

Structure (SMILES): OB1OCc2cc(CN[C@@H]3CCCc4c3[nH]c3ccc(Br)cc43)ccc21 [Compound 37]
- IC50 [1]: 101 to 300 nM
- IC20 (wild-type HTT): > 1000 nM
- M2-8 Cell viability (M2-8 cells): + (cell viability is greater than 50% at the concentration of 1000 nM)
- Mouse HepStability (CLhepatocyte) (mouse hepatocytes): B (CLhepatocyte 10-30 μl/min/10^6cells)
- IC20 (mutant HTT [3]; numeric bounds): > 100 nM
- IC20 (mutant HTT [4]): 101 to 300 nM
- LBC viability at IC20 [5]: * (cell viability is greater than 60% at the concentration of IC20)

Structure (SMILES): CC1(C)OB(c2ccc(CN[C@@H]3CCCc4c3[nH]c3ccc(Br)cc43)cc2)OC1(C)C [Compound 43, (R)-6-bromo-N-(4-(4,4,5,5-tetramethyl-1,3,2-dioxaborolan-2-yl)benzyl)-2,3,4,9-tetrahydro-1H-carbazol-1-amine]
- IC50 [1]: ≤ 100 nM
- IC20 (wild-type HTT): > 1000 nM
- M2-8 Cell viability (M2-8 cells): + (cell viability is greater than 50% at the concentration of 1000 nM)
- iPSC viability at IC20 [2]: + (cell viability is greater than 75% at the concentration of IC20)
- IC20 (mutant HTT [3]; class symbols): < 100 nM
- IC20 (mutant HTT [4]): 101 to 300 nM
- LBC viability at IC20 [5]: * (cell viability is greater than 60% at the concentration of IC20)

Structure (SMILES): C=Cc1ccc2[nH]c3c(c2c1)CCC[C@H]3NCc1ccccc1 [Compound 45]
- IC50 [1]: ≤ 100 nM
- IC20 (wild-type HTT): > 1000 nM
- M2-8 Cell viability (M2-8 cells): + (cell viability is greater than 50% at the concentration of 1000 nM)
- iPSC viability at IC20 [2]: + (cell viability is greater than 75% at the concentration of IC20)
- IC20 (mutant HTT [3]; class symbols): < 100 nM
- IC20 (mutant HTT [4]): < 100 nM
- LBC viability at IC20 [5]: * (cell viability is greater than 60% at the concentration of IC20)

Structure (SMILES): COC(C)(C)c1ccc(CN[C@@H]2CCCc3c2[nH]c2ccc(Br)cc32)cc1 [Compound 48, (R)-6-bromo-N-(4-(2-methoxypropan-2-yl)benzyl)-2,3,4,9-tetrahydro-1H-carbazol-1-amine]
- IC50 [1]: ≤ 100 nM
- IC20 (wild-type HTT): > 500 nM
- M2-8 Cell viability (M2-8 cells): + (cell viability is greater than 50% at the concentration of 1000 nM)
- iPSC viability at IC20 [2]: + (cell viability is greater than 75% at the concentration of IC20)
- IC20 (mutant HTT [3]; class symbols): < 100 nM
- IC20 (mutant HTT [4]): < 100 nM
- LBC viability at IC20 [5]: * (cell viability is greater than 60% at the concentration of IC20)

Structure (SMILES): OC1(c2ccc(CN[C@@H]3CCCc4c3[nH]c3ccc(Br)cc43)cc2)CC1 [Compound 50, (R)-1-(4-(((6-bromo-2,3,4,9-tetrahydro-1H-carbazol-1-yl)amino)methyl)phenyl) cyclopropan-1-ol]
- IC50 [1]: ≤ 100 nM
- IC20 (wild-type HTT): > 500 nM
- M2-8 Cell viability (M2-8 cells): + (cell viability is greater than 50% at the concentration of 1000 nM)
- iPSC viability at IC20 [2]: + (cell viability is greater than 75% at the concentration of IC20)
- IC20 (mutant HTT [3]; class symbols): < 100 nM
- IC20 (mutant HTT [4]): < 100 nM
- LBC viability at IC20 [5]: * (cell viability is greater than 60% at the concentration of IC20)

Structure (SMILES): Oc1ccc(CN[C@@H]2CCCc3c2[nH]c2ccc(Br)cc32)cc1 [Compound 60, (R)-4-(((6-bromo-2,3,4,9-tetrahydro-1H-carbazol-1-yl)amino)methyl)phenol]
- IC50 [1]: ≤ 100 nM
- IC20 (wild-type HTT): > 1000 nM
- M2-8 Cell viability (M2-8 cells): + (cell viability is greater than 50% at the concentration of 1000 nM)
- iPSC viability at IC20 [2]: + (cell viability is greater than 75% at the concentration of IC20)
- IC20 (mutant HTT [3]; class symbols): < 100 nM
- IC20 (mutant HTT [4]): 101 to 300 nM
- LBC viability at IC20 [5]: * (cell viability is greater than 60% at the concentration of IC20)

Structure (SMILES): CC(C)(O)c1ccc(CN[C@@H]2CCCc3c2[nH]c2ccc(Br)nc32)cc1 [Compound 63]
- IC50 [1]: ≤ 100 nM
- IC20 (wild-type HTT): > 500 nM
- M2-8 Cell viability (M2-8 cells): + (cell viability is greater than 50% at the concentration of 1000 nM)
- iPSC viability at IC20 [2]: + (cell viability is greater than 75% at the concentration of IC20)
- IC20 (mutant HTT [3]; class symbols): < 100 nM
- IC20 (mutant HTT [4]): < 100 nM
- LBC viability at IC20 [5]: * (cell viability is greater than 60% at the concentration of IC20)

Structure (SMILES): OCc1ccc(CN[C@@H]2CCCc3c2[nH]c2ccc(Br)nc32)cc1 [Compound 65]
- IC50 [1]: ≤ 100 nM
- IC20 (wild-type HTT): > 1000 nM
- M2-8 Cell viability (M2-8 cells): + (cell viability is greater than 50% at the concentration of 1000 nM)
- iPSC viability at IC20 [2]: + (cell viability is greater than 75% at the concentration of IC20)
- IC20 (mutant HTT [3]; class symbols): < 100 nM
- IC20 (mutant HTT [4]): 301 to 1000 nM
- LBC viability at IC20 [5]: * (cell viability is greater than 60% at the concentration of IC20)

Structure (SMILES): CC(C)(O)c1ccc(CN[C@@H]2CCCc3c2[nH]c2ccc(Br)nc32)s1 [Compound 66]
- IC50 [1]: ≤ 100 nM
- IC20 (wild-type HTT): > 1000 nM
- M2-8 Cell viability (M2-8 cells): + (cell viability is greater than 50% at the concentration of 1000 nM)
- iPSC viability at IC20 [2]: + (cell viability is greater than 75% at the concentration of IC20)
- IC20 (mutant HTT [3]; class symbols): < 100 nM
- IC20 (mutant HTT [4]): < 100 nM
- LBC viability at IC20 [5]: * (cell viability is greater than 60% at the concentration of IC20)
